Legend:
[1] = Rate of dissolution in H2O at 25° C. of rebaudioside A polymorph and amorphous forms; type: physicochemical
Excerpt: The purification of rebaudioside A by crystallization as described above results in the formation of at least three different polymorphs: Form 1: a rebaudioside A hydrate; Form 2: an anhydrous rebaudioside A; Form 3: a rebaudioside A solvate. In addition to the at least three polymorph forms of rebaudioside A, the purification of rebaudioside A may result in the formation of an amorphous form of rebaudioside A, Form 4. The aqueous organic solution and temperature of the purification process influence the resulting polymorph and amorphous forms in the substantially pure rebaudioside A composition. FIGS. 1-5 are exemplary powder x-ray diffraction (XRPD) scans of the polymorph and amorphous forms of rebaudioside A: Form 1 (hydrate), Form 2 (anhydrate), Form 3A (methanol solvate), Form 3B (ethanol solvate), and Form 4 (amorphous), respectively.

[2] = type: physicochemical
Procedure: A solution of rebaudioside A (>97% pure by HPLC) was prepared in double distilled water (12.5 gm in 50 mL, 25% concentration) by stirring the mixture at 40° C. for 5 minutes. An amorphous form of rebaudioside A was formed by immediately using the clear solution for spray drying with the Lab-Plant spray drier SD-04 instrument (Lab-Plant Ltd., West Yorkshire, U.K.). The solution was fed through the feed pump into the nozzle atomizer which atomized it into a spray of droplets with the help of a constant flow of nitrogen/air. […] This dry powder (11-12 g, H2O 6.74%) was discharged continuously from the drying chamber and was collected in a bottle.

Rate of dissolution in H2O at 25° C. ([1]; per 60 minutes)	Rate of dissolution in H2O at 25° C. ([1]; per 5 minutes)	solubility in water at room temperature [2] [%]	Substance
Very low (<0.2%/ %/60 minutes			rebaudioside A [Form 1]
	Intermediate (<30%/ %/5 minutes		rebaudioside A [Form 2]
	High (>30%/5 %/5 minutes		rebaudioside A [Form 3]
	High (>35%/5 %/5 minutes	> 35.0	rebaudioside A [Form 4]

From patent publication US20070116825A1, “Confection with High-Potency Sweetener” (THE COCA-COLA COMPANY, priority 2005, published 2007)
